The chromatographic logP is a lipophilicity value derived from retention on a column.

Structures are written as SMILES.

Data set [1] relates to Venturia inaequalis. As to the kind of experiment: Venturia test (apple)/protective. The data set is classed as in vivo. Particulars: 240 h, protective spray, evaluation 10 days after inoculation, read-out: Efficacy (%). As to the method: Venturia Test (Apple)/Protective
(§1) Solvents: 24.5 parts by weight of acetone
(§2) • 24.5 parts by weight of dimethylacetamide Emulsifier: 1 part by weight of alkylaryl polyglycol ether
(§3) To produce a suitable preparation of active compound, 1 part by weight of active compound is mixed with the stated amounts of solvent and emulsifier, and the concentrate is diluted with water to the desired concentration. To test for protective activity, young plants are sprayed with the preparation of active compound at the stated application rate. After the spray coating has dried on, the plants are inoculated with an aqueous conidia suspension of the apple scab pathogen Venturia inaequalis and then remain in an incubation cabin at approx. 20° C. and 100% relative air humidity for 1 day. The plants are then placed in the greenhouse at about 21° C. and a relative atmospheric humidity of about 90%. Evaluation follows 10 days after the inoculation. 0% means an efficacy which corresponds to that of the control, whereas an efficacy of 100% means that no infection is observed.
(§4) In this test, the following compounds according to the invention show, at an active compound concentration of 100 ppm, an efficacy of 70% or more: […]

For data set [2], the system named is Sphaerotheca fuliginea. The experiment in a line: Sphaerotheca test (cucumber)/protective. The data set is classed as in vivo. The note with it: Podosphaera fuliginea, 168 h, cucumber plants, protective spray, evaluation 7 days after inoculation, read-out: Efficacy (%). As to the method: Sphaerotheca Test (Cucumber)/Protective
(§5) Solvent: 49 parts by weight of N,N-dimethylformamide
(§6) Emulsifier: 1 part by weight of alkylaryl polyglycol ether
To produce a suitable preparation of active compound, 1 part by weight of active compound is mixed with the stated amounts of solvent and emulsifier, and the concentrate is diluted with water to the desired concentration. To test for protective activity, young cucumber plants are sprayed with the preparation of active compound at the stated application rate. 1 day after the treatment, the plants are inoculated with a spore suspension of Sphaerotheca fuliginea. The plants are then placed in a greenhouse at 70% relative air humidity and a temperature of 23° C. Evaluation follows 7 days after the inoculation. 0% means an efficacy which corresponds to that of the control, whereas an efficacy of 100% means that no infection is observed. In this test, the following compounds according to the invention show, at an active compound concentration of 500 ppm, an efficacy of 70% or more: […]

Data set [3] relates to Septoria tritici. As to the kind of experiment: Septoria tritici test (wheat)/protective. The data set is classed as in vivo. The note with it: Zymoseptoria tritici, 504 h, protective spray, evaluation 21 days after inoculation, read-out: Efficacy (%). On the procedure:
Septoria tritici Test (Wheat)/Protective
(§7) Solvent: 49 parts by weight of N,N-dimethylacetamide
as §6
(§8) To produce a suitable preparation of active compound, 1 part by weight of active compound is mixed with the stated amounts of solvent and emulsifier, and the concentrate is diluted with water to the desired concentration. To test for protective activity, young plants are sprayed with the preparation of active compound at the stated application rate. After the spray coating has dried on, the plants are sprayed with a spore suspension of Septoria tritici. The plants remain in an incubation cabin at 20° C. and 100% relative atmospheric humidity for 48 hours. Thereafter, the plants are placed under a translucent hood at 15° C. and 100% relative air humidity for a further 60 hours. The plants are placed in a greenhouse at a temperature of about 15° C. and a relative atmospheric humidity of about 80%. Evaluation follows 21 days after the inoculation. 0% means an efficacy which corresponds to that of the control, whereas an efficacy of 100% means that no infection is observed.
(§9) In this test, the following compounds according to the invention show, at an active compound concentration of 500 ppm, an efficacy of 70% or more: […]

Data set [4] concerns Puccinia triticina. As to the kind of experiment: Puccinia triticina test (wheat)/protective. The data set is classed as in vivo. Particulars: 192 h, protective spray, evaluation 8 days after inoculation, read-out: Efficacy (%). As to the method: Puccinia triticina Test (Wheat)/Protective
as §7, §6
as §8, with “sprayed with spores with a spore” for “sprayed with a spore”, “suspension of Puccinia triticina. The plants” for “suspension of Septoria tritici. The plants”, “48 hours. The plants” for “48 hours. Thereafter, the plants are placed under a translucent hood at 15° C. and 100% relative air humidity for a further 60 hours. The plants”, “of about 20° C. and” for “of about 15° C. and”, “Evaluation follows 8 days after” for “Evaluation follows 21 days after”
as §9

Data set [5] has as its system Alternaria solani. As to the kind of experiment: Alternaria test (tomato)/protective. The data set is classed as in vivo. The note with it: 168 h, tomato plants, protective spray, evaluation 7 days after inoculation, read-out: Efficacy (%). On the procedure:
Alternaria Test (Tomato)/Protective
as §5, §6
To produce a suitable preparation of active compound, 1 part by weight of active compound is mixed with the stated amounts of solvent and emulsifier, and the concentrate is diluted with water to the desired concentration. To test for protective activity, young tomato plants are sprayed with the preparation of active compound at the stated application rate. 1 day after the treatment, the plants are inoculated with a spore suspension of Alternaria solani and then remain at 100% rd. humidity and 22° C. for 24 h. The plants then remain at 96% rd. atmospheric humidity and a temperature of 20° C. Evaluation is carried out 7 days after the inoculation. 0% means an efficacy which corresponds to that of the control, whereas an efficacy of 100% means that no infection is observed.
as §9

For data set [6], the system named is Uromyces appendiculatus. As to the kind of experiment: Uromyces test (bean)/protective. The data set is classed as in vivo. The note with it: 240 h, protective spray, evaluation 10 days after inoculation, read-out: Efficacy (%). On the procedure: Uromyces Test (Bean)/Protective
as §1, §2
as §3, with “spore” for “conidia”, “bean rust” for “apple scab”, “Uromyces appendiculatus” for “Venturia inaequalis”, “about” for “approx.”, “atmospheric” for “air”
as §4

Data set [7] is described as follows: log P by HPLC on reversed-phase columns (C 18), EEC directive 79/831 Annex V.A8. The data set is classed as physicochemical. Particulars: reversed-phase HPLC columns (C 18); method [a]: LC-MS, acidic range pH 2.7, 0.1% aqueous formic acid/acetonitrile, gradient 10% to 95% acetonitrile. On the procedure: The log P values were measured according to EEC directive 79/831 Annex V.A8 by HPLC (High Performance Liquid Chromatography) on reversed-phase columns (C 18), using the methods below: [a] The LC-MS determination in the acidic range is carried out at pH 2.7 with 0.1% aqueous formic acid and acetonitrile (contains 0.1% formic acid) as mobile phases; linear gradient from 10% acetonitrile to 95% acetonitrile.

Data set [8] deals with Blumeria graminis fsp. hordei. As to the kind of experiment: Blumeria graminis test (barley)/protective. Particulars: 168 h, protective spray, evaluation 7 days after inoculation, read-out: Efficacy (%). The data set is classed as in vivo. On the procedure:
Blumeria graminis Test (Barley)/Protective
as §7, §6
To produce a suitable preparation of active compound, 1 part by weight of active compound is mixed with the stated amounts of solvent and emulsifier, and the concentrate is diluted with water to the desired concentration. To test for protective activity, young plants are sprayed with the preparation of active compound at the stated application rate. After the spray coating has dried on, the plants are dusted with spores of Blumeria graminis fsp. hordei. The plants are placed in a greenhouse at a temperature of about 18° C. and a relative air humidity of about 80% to promote the development of mildew pustules. Evaluation follows 7 days after the inoculation. 0% means an efficacy which corresponds to that of the control, whereas an efficacy of 100% means that no infection is observed.
as §9

Data set [9] deals with Leptosphaeria nodorum. As to the kind of experiment: Leptosphaeria nodorum test (wheat)/protective. The data set is classed as in vivo. The note with it: Parastagonospora nodorum, wheat plants, protective spray, evaluation 7-9 days after inoculation, read-out: Efficacy (%). On the procedure:
Leptosphaeria nodorum Test (Wheat)/Protective
as §5, §6
To produce a suitable preparation of active compound, 1 part by weight of active compound is mixed with the stated amounts of solvent and emulsifier, and the concentrate is diluted with water to the desired concentration. To test for protective activity, young wheat plants are sprayed with the preparation of active compound at the stated application rate. 1 day after the treatment, the plants are inoculated with an aqueous spore suspension of Leptosphaeria nodorum and then remain at 100% relative atmospheric humidity and 22° C. for 48 h. The plants are then placed in a greenhouse at 90% relative atmospheric humidity and a temperature of 22° C. Evaluation is carried out 7-9 days after the inoculation. 0% means an efficacy which corresponds to that of the control, whereas an efficacy of 100% means that no infection is observed. In this test, the following compounds according to the invention show, at an active compound concentration of 500 ppm, an efficacy of 70% or more: […]

`Cc1cc(OC(F)(F)F)ccc1OCC(O)(c1cncnc1)C(C)(C)C` (centres unmarked) [Compound 30]: the values for the pest or weed control at 100 ppm in [1] and in data set [6] were 98% and 100%, respectively. Moreover, the pest or weed control at 500 ppm was 100% in data set [2]; 71% in data set [3]; 100% in data set [4]; 90% in [5]; 100% in [8]; 89% in data set [9]. The molecule further gave a chromatographic logP in [7] of 3.59.
For the molecule `CC(C)(C)C(O)(COc1ccc(SC(F)(F)F)c(Cl)c1)c1cncnc1` (centres unmarked) [Compound 31], the pest or weed control at 100 ppm in data set [1] is 99%; in data set [6], 100%. The pest or weed control at 500 ppm in data set [2] was 100%; in data set [5], 95%; in data set [9] it was 95%. The molecule further gave a chromatographic logP in data set [7] of 3.76.
Consider `CC(C)(C)C(O)(COc1ccc(OC(F)F)cc1)c1cncnc1` (centres unmarked) [Compound 34], for which the pest or weed control at 500 ppm was 95% in [2], 95% in [5] and 100% in data set [9]. In [7], the chromatographic logP worked out at 2.63.
For the molecule `CC(C)(C)C(O)(COc1ccc(OC(F)(F)F)cc1Cl)c1cncnc1` (centres unmarked) [Compound 29], the pest or weed control at 500 ppm in data set [2] amounted to 100%; in data set [5] it was 78%; in [9] it was 75%. In addition, the chromatographic logP in [7] was 3.47.
For the molecule `CC(C)C(O)(CSc1ccc(SC(F)(F)F)cc1)c1cncnc1` (centres unmarked) [Compound 3], the pest or weed control at 500 ppm in data set [2] amounted to 94%; in data set [3] it was 75%; in data set [5] it was 95%; in data set [8] it was 100%; in [9], 90%. The chromatographic logP in data set [7] was 3.28.
Regarding `CC1(C(O)(COc2ccc(SC(F)(F)F)cc2)c2cncnc2)CC1` (centres unmarked) [Compound 19], the pest or weed control at 500 ppm in [2] came out at 95%; in [3] it was 86%; in data set [4] it was 100%; in data set [5], 90%; in data set [8] it was 100%; in data set [9] it was 95%. In data set [7], this molecule had a chromatographic logP of 3.3.
Take `CC(C)(C)C(O)(COc1ccc(S(=O)(=O)C(F)(F)F)cc1)c1cncnc1` (centres unmarked) [Compound 33]: the pest or weed control at 100 ppm in data set [1] was 99%; in [6], 100%. Also, the pest or weed control at 500 ppm in data set [2] stood at 95%; in data set [4] it was 100%; in data set [5], 89%; in data set [8], 100%; in data set [9], 94%. The molecule also displayed a chromatographic logP in [7] of 2.82.

The values are drawn from US9241487B2, “Pyrimidine derivatives and use thereof as pesticides” (BAYER INTELLECTUAL PROPERTY GMBH, priority 2010, dated 2016).
